This is an account of results in patent publication US8551721B2, “Bioluminescent detection of cyanohydroxy benzothiazole compounds” (Promega Corporation, priority 2008, dated 2013).

What all share (format): biochemical
Assay [1] concerns the target T1, UGT 1A1 (Homo sapiens, UniProt P22309).
T1 construct: purchased BD Gentest; host or cells: insect cells (microsomes)
T1 sequence (P22309 26-533): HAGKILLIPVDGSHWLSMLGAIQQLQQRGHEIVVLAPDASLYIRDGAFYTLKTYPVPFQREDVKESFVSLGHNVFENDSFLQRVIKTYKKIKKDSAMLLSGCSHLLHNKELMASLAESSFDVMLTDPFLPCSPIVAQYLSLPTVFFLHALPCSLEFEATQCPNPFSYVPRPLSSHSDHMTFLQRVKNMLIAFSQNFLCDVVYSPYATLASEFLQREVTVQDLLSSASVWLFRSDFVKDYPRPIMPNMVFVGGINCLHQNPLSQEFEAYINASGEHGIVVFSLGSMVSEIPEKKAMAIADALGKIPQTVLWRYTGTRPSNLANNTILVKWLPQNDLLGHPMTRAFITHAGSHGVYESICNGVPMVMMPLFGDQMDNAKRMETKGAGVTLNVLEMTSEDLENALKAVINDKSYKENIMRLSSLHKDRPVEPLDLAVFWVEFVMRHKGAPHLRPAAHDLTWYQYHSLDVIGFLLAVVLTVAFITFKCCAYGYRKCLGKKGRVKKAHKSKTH
The experiment in a line: UGT activity: utilization of substrate by recombinant UGT 1A1 Supersomes. Conditions: 2 hour incubation at 37° C., plus vs minus UDPGA, background corrected. As for the experimental part:
(§1) The invention includes a method of determining activity of the uridine 5′-diphospho-glucuronosyltransferase (UDP-glucuronosyltransferase, or UGT) family enzymes in vitro. Briefly, UGT enzymes from overexpressed insect microsomes (Supersomes™, BD Gentest™) or animal tissue microsomes (Xenotech, BD Gentest™) were incubated with a cyanobenzothiazole substrate of the invention and the cofactor UDP-glucuronic acid (UDPGA) at 37° C. in buffer at physiological pH containing MgCl2 and alamethicin (typically, 50 mM TES, pH 7.5, 8 mM MgCl2, 4 mM UDPGA (Sigma) and 25 μg/mL alamethicin (Sigma)). Following the UGT enzyme reaction, an equal volume of P450-Glo Luciferin Detection Reagent (Promega) containing 15-30 mM D-cysteine-HCl.H2O (Sigma) was added and the plate was mixed and incubated at room temperature, typically for 20-30 minutes. […]
(§2) During this incubation, the cysteine reacts with the cyanobenzathiozole substrate to yield a D-luciferin derivative. […] Therefore, activity of the UGT enzyme can be measured by analyzing the difference (lower or no output) in relative light units (RLU) of a sample in which glucuronidation occurs compared to a sample that was run under the same conditions with no added UDPGA cofactor. […]
(§3) Reactions were assembled in a white 96-well plate. […] After the incubation was completed, the plate was read on a Veritas™ luminometer (Turner BioSystems, Inc.; Sunnyvale, Calif.). […]

For assay [2], the target named is T2, UGT 1A9 (Homo sapiens, UniProt O60656).
T2 construct: purchased BD Gentest; host or cells: insect cells (microsomes)
T2 sequence (O60656 26-530): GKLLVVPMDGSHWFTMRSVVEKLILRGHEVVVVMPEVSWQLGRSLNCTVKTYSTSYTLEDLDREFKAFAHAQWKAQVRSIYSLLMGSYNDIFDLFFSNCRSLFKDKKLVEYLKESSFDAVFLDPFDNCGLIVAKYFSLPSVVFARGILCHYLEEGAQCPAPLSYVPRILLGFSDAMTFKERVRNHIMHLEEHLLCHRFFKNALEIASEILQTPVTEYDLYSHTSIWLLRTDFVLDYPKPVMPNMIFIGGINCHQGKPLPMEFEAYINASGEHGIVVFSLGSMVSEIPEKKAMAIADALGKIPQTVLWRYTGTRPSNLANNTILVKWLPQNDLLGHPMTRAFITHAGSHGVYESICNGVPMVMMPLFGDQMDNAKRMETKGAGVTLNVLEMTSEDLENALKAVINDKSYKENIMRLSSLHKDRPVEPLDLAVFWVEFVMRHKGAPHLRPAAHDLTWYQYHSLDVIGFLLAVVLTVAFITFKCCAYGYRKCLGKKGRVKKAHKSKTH
Put plainly: UGT activity: utilization of substrate by recombinant UGT 1A9 Supersomes. Conditions: 2 hour incubation at 37° C., plus vs minus UDPGA, background corrected. Here is the method: as §1, §2, §3

Assay [3] has as its target T3, UGT 2B17 (Homo sapiens, UniProt O75795).
T3 construct: purchased BD Gentest; host or cells: insect cells (microsomes)
T3 sequence (O75795 24-530): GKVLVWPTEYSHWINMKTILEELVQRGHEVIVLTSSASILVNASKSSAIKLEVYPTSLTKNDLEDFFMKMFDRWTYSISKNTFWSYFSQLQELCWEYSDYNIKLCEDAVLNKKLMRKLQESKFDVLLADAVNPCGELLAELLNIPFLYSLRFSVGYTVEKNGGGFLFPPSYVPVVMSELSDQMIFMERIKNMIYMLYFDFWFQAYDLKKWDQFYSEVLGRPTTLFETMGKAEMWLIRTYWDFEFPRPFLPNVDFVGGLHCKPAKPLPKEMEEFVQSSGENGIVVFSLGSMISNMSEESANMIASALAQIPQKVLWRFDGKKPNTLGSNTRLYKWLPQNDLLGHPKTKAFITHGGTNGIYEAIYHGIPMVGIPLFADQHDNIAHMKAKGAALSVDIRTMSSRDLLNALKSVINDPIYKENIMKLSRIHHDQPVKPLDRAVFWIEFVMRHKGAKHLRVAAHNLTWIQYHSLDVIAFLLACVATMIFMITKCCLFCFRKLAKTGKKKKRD
Put plainly: UGT activity: utilization of substrate by recombinant UGT 2B17 Supersomes. Conditions: 2 hour incubation at 37° C., plus vs minus UDPGA. Here is the method:
as §1, §2, §3

Molecules are shown by their SMILES. Where only a bound is given, the exact number is not on record here.

With `Cc1cc(O)cc2sc(C#N)nc12` [compound 3138], in assay [1], the “% utilization by UGT 1A1” value is “over 50%”. Further, the “% utilization by UGT 1A9” value in assay [2] is given as “over 50%”. For the same compound, the “utilization by UGT 2B17 (in words)” value in assay [3] was “detectable levels of utilization above background”.
As for `Cc1cc(O)cc2sc(C3=NC(C(=O)O)CS3)nc12` (stereo not drawn) [compound 3478], the “% utilization by UGT 1A1” value in assay [1] is given as no more than 15%. Moreover, the “% utilization by UGT 1A9” value in assay [2] is no more than 15%. Moreover, the “utilization by UGT 2B17 (in words)” value in assay [3] is recorded as “only UGT 1A6 was able to utilize compound 3478 to any appreciable extent”.
